Read-outs that look alike come from different tables or passages of the source.
What was measured:
[1] = molecular target: T1, first bromodomain (BrD1) of human BRD4 (Homo sapiens, UniProt O60885); experiment: Fluorescence anisotropy binding assay (competition with FITC-labeled MS417 probe); conditions: FITC-MS417 probe 80 nM, PBS pH 7.4, 1 hour, 25° C., read-out: BRD4_1 IC50
T1 construct: the first bromodomain (BrD1) of human BRD4; poly-His (cleaved yes); made in house
How it was run: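 Competitive fluorescence anisotropy in PBS pH 7.4: 80 nM FITC-MS417 probe, 0.25 to 1 μM tag-cleaved BrD1, titrated unlabeled ligand, 1 hour at 25° C. IC50 values were fitted and converted to Ki using a corrected Cheng-Prusoff equation assuming one-site competition.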

[2] = Human, rat, and mouse microsome stability assay; format: in vitro ADME; conditions: Sprague-Dawley (rat), CD1 (mouse), pH 7.4, rat, and mouse liver microsomes, 0.5 μM compound, 0.25 mg/mL microsomal protein, 37° C., read-out: intrinsic clearance Clint
Method: Human, Rat, and Mouse Microsome Stability Assay
Human, rat, and mouse liver microsomal incubations were carried out at 37° C. with a final incubation volume of 135 μL. Human liver microsomes (mixed gender, Catalog No. H2610) were obtained from XenoTech. Rat liver microsomes (male Sprague-Dawley, Catalog No. 452501) were obtained from BD Gentest. Mouse liver microsomes (male CD1, Catalog No. 452701) were obtained from BD Gentest. Incubations were conducted using a test compound (initially dissolved in DMSO at […] concentration) concentration of 0.5 μM and 0.25 mg/mL microsomal protein in 50 mM phosphate buffer at pH 7.4. Time zero samples were prepared by transferring 13.5 μL of compound-microsomal mix to the quench plates containing 45 μL of quench solution made of 10 nM Buspirone (Sigma) or 50 nM Carbutamide (Princeton Bio) as internal standard in 1:1 methanol:acetonitrile. An aliquot of 1.5 μL Nicotinamide adenine dinucleotide phosphate reduced tetrasodium salt (NADPH) was also added to the time zero plates. The reaction was then initiated by the addition of 13.5 μL NADPH to the compound-microsomal mix. At each of the remaining time points (5, 10, 15, 20, 30, 45 and 60 min) 15 μL of incubation mixture was added to 45 μL of quench solution. Samples were centrifuged for 15-30 minutes at 3800 rpm. Samples were then pooled for 6 per group. An aliquot of 60 μL of supernatant was transferred to 96-well plate, and a 5 μL aliquot was injected and analyzed by LC-MS (Applied Biosystems API 5500 QTrap).

[3] = molecular target: T2, BRD4_2 (Homo sapiens, UniProt O60885); experiment: Fluorescence anisotropy binding assay (competition with FITC-labeled MS417 probe), BRD4_2; conditions: FITC-MS417 probe 80 nM, PBS pH 7.4, 1 hour, 25° C.
T2 construct: contains two tandem bromodomains (BrD1 and BrD2)

[4] = system: IL-8 expression in human basal-like breast cancer cells (BLBCs); experiment: ELISA assay assessing IL-8 expression in BLBCs; format: cell-based; conditions: read-out: IC50, inhibition of IL-8 expression
Method: ELISA Assay Assessing IL-8 Expression in BLBCs […] The following day upon cells adhesion to the plate bottom, all supernatants were carefully discarded followed by adding test compounds diluted in culturing medium. The test compounds dissolved in DMSO (Sigma-Aldrich Chemical Co., St. […] The final concentration of DMSO was adjusted to 0.05% (v/v). At the end of 24-hour incubation, all supernatants were carefully removed and stored at −80° C. if the subsequent steps would not be performed immediately. The Human IL-8 ELISA Ready-Set-Go! (2nd generation) is used (Catalog No. 88-8086) against the prepared samples. The samples along with the Standard Human IL-8 Recombinant Protein (prepared in duplicates in a 2-fold serial dilution from 250 pg/ml to 2 pg/ml) were incubated overnight for maximal sensitivity. The assay was measured by an absorption reading at 450 nm using EnVision 2104 Multilabel Reader (PerkinElmer, Inc., Waltham, Mass.). Each experiment was performed at least in duplicate and plotted using Prism. The curve fitting equation used was “log(inhibitor) vs. response variable slope (four parameters)”.

[5] = system: T-cell-transfer colitis model in Rag1−/− mice; experiment: T-cell-transfer colitis study and histopathology; format: in vivo
Excerpt: FIG. 1 is a graph of body weight as percent change from baseline vs time (in weeks) for treated and untreated mice in which inflammatory colitis has been induced.
FIG. 2 is a gray-scale rendering of a photograph showing the gross morphology of the intestines for treated and untreated mice in which inflammatory colitis has been induced compared to a normal (control) intestine.
T-Cell-Transfer Colitis Study and Histopathology
After 5-7 weeks, mice were killed and colon tissues were excised. Tissues were fixed in 10% buffered formalin and paraffin embedded. The sections (5 μm) of tissue samples stained with hematoxylin and eosin. All the slides were read and scored by an experienced pathologist without previous knowledge of the type of treatment. The degree of inflammation in the epithelium, submucosa and muscularis propria was scored separately.

[6] = system: IL-6 secretion in RAW264.7 cells; experiment: LPS-induced IL-6 secretion in murine macrophage RAW264.7 cells (ELISA); format: cell-based; conditions: LPS 1 μg/ml, 24 hours, mouse IL-6 ELISA
Method: LPS-Induced IL-6Secretion In Murine Macrophage Raw264.7 Cells RAW264.7 cells were cultivated in Dulbecco's modified Eagle medium (DMEM) (Hyclone, Logan, Utah) supplemented with 10% FBS (fetal bovine serum) (Hyclone, Logan, Utah) at 37° C. in a humidified atmosphere of 5% CO2. Cells in 96-well plates (0.1 ml, 3×10^5 cells/ml) were treated with the test compounds. After 30 min, all supernatants were removed and cells were treated with LPS (lipopolysaccharide) (1 μg/ml) (Sigma-Aldrich Chemical Co., St. Louis, Mo.) and compounds. After 24 hours, the supernatant was collected and mouse IL-6 protein level was measured using ELISA (enzyme-linked immunosorbent assay) (Thermo Scientific, Pittsburgh, Pa.). The compounds dissolved in DMSO were diluted with culture medium to concentrations from 0.28 to 50,000 nM. The final concentration of DMSO was adjusted to 0.05% (v/v). The assay was measured by an absorption reading at 570 nm using EnVison 2104 Multilabel Reader (PerkinElmer, Inc., Waltham, Mass.). Each experiment was performed at least in triplicate, and plotted using Prim, and an IC50 value was calculated.

[7] = system: mRNA transcript levels of cytokines IL-6, IL-1β and TNFα in RAW264.7 cells; experiment: LPS-induced transcriptional activation of cytokines in murine macrophage cells (quantitative PCR); format: cell-based; conditions: Mus musculus
Method: LPS-Induced Transcriptional Activation of Cytokines in Murine Macrophage Cells RAW264.7 cells were cultivated with or without a treatment of the compounds as described above. Total RNA was isolated the cells using TRIzol reagent (Gibco, Grand Island, N.Y.) for homogenization. The concentration and integrity of RNA were determined by measuring absorbance at a 260 nm/280 nm ratio. Quantitative PCR was performed to determine the mRNA transcript levels of cytokines IL-6, IL-1β and TNFα with specific primers for these target genes. Each experiment was performed at least in triplicate, and plotted using Prim, and an IC50 value was calculated.

[8] = system: NO release in RAW264.7 cells; experiment: LPS-stimulated nitric oxide (NO) release in murine macrophage RAW264.7 cells (Griess reaction); format: cell-based; conditions: Mus musculus; RAW264.7 cells, LPS 1 μg/ml, 24 hours, nitrite by Griess reaction; read-out: IC50 in inhibition of LPS-induced NO release
Method: LPS-Stimulated Nitric Oxide (NO) Release in Murine Macrophage RAW264.7 Cells
RAW264.7 cells was cultivated in DMEM supplemented with 10% FBS at 37° C. in a humidified atmosphere of 5% CO2. Cells in 96-well plates (0.1 ml, 3×10^5 cells/ml) were treated with the test compounds. After 30 min, all supernatants were removed and cells were treated with LPS (1 μg/ml) and the test compounds. After 24 hours, the level of nitrite was measured using Griess reaction G2930 (Promega Corp., Madison, Wis.) [see Bredt and Snyder, Ann Rev Biochem 63, 175-195 (1994)]. The test compounds dissolved in DMSO were diluted with culture medium to concentrations from 0.28 to 50,000 nM. The final concentration of DMSO was adjusted to 0.05% (v/v). The nitrite production was measured by spectrophotometry at 520 nm using EnVison 2104 Multilabel Reader (PerkinElmer, Inc., Waltham, Mass.). Each experiment was performed at least in triplicate and plotted using Prism.

[9] = system: primary human AML stem- and progenitor cells; conditions: cited from earlier work
[10] = system: HIV-1 transgenic mice; conditions: model for HIV-associated nephropathy; cited from earlier work
[11] = panel of human BLBC cells MDA-MB-435S, MDA-MB-231, BT-549, MDA-MB-157, HS578T, SUM1315, 24-hour incubation

Row | SMILES | IC50 [1] | microsomal CLint at 0.5 μM [2] | IC50 [3] | melting point | also measured
1 | CC1=C(Nc2cc(NS(=O)(=O)c3ccccc3C)ccc2Cl)CCCC1=O [Example 05-66, N-(4-chloro-3-((2-methyl-3-oxocyclohex-1-en-1-yl)amino)phenyl)-2-methylbenzenesulfonamide] | < 1000 nM | 25 to 250 µL/min/mg | < 1000 nM | 246 to 248 °C | 
2 | CC1=C(Nc2cccc(NS(=O)(=O)c3ccccc3C)c2Cl)CCCC1=O [Example 05-70, N-(2-chloro-3-((2-methyl-3-oxocyclohex-1-en-1-yl)amino)phenyl)-2-methylbenzenesulfonamide] | < 1000 nM | 25 to 250 µL/min/mg | > 10000 nM | 185 to 187 °C | IC50 [4, 11]: 100 to 1000 nM
3 | COc1ccc(NC(=O)c2ccc(NC3=C(C)C(=O)CC3)c(Cl)c2)cc1 [Example 04-19, 3-chloro-N-(4-methoxyphenyl)-4-((2-methyl-3-oxocyclopent-1-en-1-yl)amino)benzamide] | < 1000 nM |  | 1000 to 10000 nM |  | development of colitis ([5]; CD4+CD45RBhi T cells injected intra-peritoneally into Rag1−/− mice): inhibits the development of colitis; gross morphology of the intestines ([5]; after 5-7 weeks, FIG. 2, treated mice vs disease group): gross morphology of the intestines is preserved; loss of body weight ([5]; mice weighed every week, FIG. 1): significantly (P<0.05) inhibits the loss of body weight; IC50 [6]: 200 to 1000 nM; IC50 ([7]; RAW264.7 cells, LPS, quantitative PCR of mRNA transcript levels, read-out: IC50 in inhibition of transcriptional activation of the cytokines IL-6, IL-1β and TNFα): 100 to 5000 nM; IC50 [8]: 100 to 5000 nM
4 | Cc1sc2c(c1C)C(c1ccc(Cl)cc1)=N[C@@H](CC(=O)OC(C)(C)C)c1nnc(C)n1-2 [JQ1] |  |  |  |  | apoptosis in CD34+/CD38− and CD34+/CD38+ stem- and progenitor cells ([9]; all donors): induce apoptosis; growth-inhibition and apoptosis ([9]; primary human AML stem- and progenitor cells, including relapsed or refractory patients): leads to growth-inhibition and apoptosis
5 | COC(=O)C[C@@H]1N=C(c2ccc(Cl)cc2)c2c(sc(C)c2C)-n2c(C)nnc21 [MS417] |  |  |  |  | inflammation and kidney injury [10]: effectively ameliorated inflammation and kidney injury
6 | CC1=C(Nc2ccc(C(=O)Nc3ccccc3C)cc2Cl)CCC1=O [Example 04-20, 3-chloro-4-((2-methyl-3-oxocyclopent-1-en-1-yl)amino)-N-(o-tolyl)benzamide] | < 1000 nM |  | 1000 to 10000 nM |  | IC50 [6]: 200 to 1000 nM; IC50 ([7]; RAW264.7, read-out: IC50 in inhibition of transcriptional activation of the cytokines IL-6, IL-1β and TNFα): 100 to 5000 nM; IC50 [8]: 100 to 5000 nM
7 | CC1=C(Nc2ccc(NS(=O)(=O)c3ccccc3C)cc2Cl)CCCC1=O [Example 05-68, N-(3-chloro-4-((2-methyl-3-oxocyclohex-1-en-1-yl)amino)phenyl)-2-methylbenzenesulfonamide] | < 1000 nM | 25 to 250 µL/min/mg | 1000 to 10000 nM | 248 to 250 °C | IC50 [4, 11]: 100 to 1000 nM
8 | CC1=C(Nc2cc(NS(=O)(=O)c3ccccc3C)ccc2Cl)CCC1=O [Example 05-57, N-(4-chloro-3-((2-methyl-3-oxocyclopent-1-en-1-yl)amino)phenyl)-2-methylbenzenesulfonamide] | < 1000 nM | 25 to 250 µL/min/mg | < 1000 nM | 236 to 238 °C | IC50 ([4]; Homo sapiens, 24 h): 100 to 1000 nM
